# Test results as given in US20220220103A1, “CYCLIN-DEPENDENT KINASE INHIBITORS” (SPV THERAPEUTICS INC., priority 2018, published 2022).
# Like-named read-outs stand apart in the source and are kept apart here.
# What was measured:
# Assay type in all cases: biochemical
# CDK7 CyclinH = CDK7 CyclinH (Homo sapiens, UniProt P50613); experiment: Inhibition assay, CDK7 CyclinH
# Experimental: (§1) The reaction was terminated by the addition of EDTA. The plates were analyzed using a Caliper LabChip 3000.
# (§2) Additional inhibition assays were performed as described above.
# CDK1/B = CDK1/B (Homo sapiens, UniProt P06493); experiment: Inhibition assay, CDK1/B
# Experimental: as §1, §2
# CDK9-CYCLINT1 = CDK9-CYCLINT1 (Homo sapiens, UniProt P50750); experiment: Microfluidic LabChip inhibition assay, CDK9-CYCLINT1; details: ATP 10 μM
# Experimental: as §1, §2
# CDK2-CYCLINA = CDK2-CYCLINA (Homo sapiens, UniProt P24941); experiment: Microfluidic LabChip inhibition assay, CDK2-CYCLINA; details: ATP 50 μM
# Experimental: as §1, §2
# CDK4-CYCLIND1 = CDK4-CYCLIND1 (Homo sapiens, UniProt P11802); experiment: Microfluidic LabChip inhibition assay, CDK4-CYCLIND1; details: ATP 200 μM, second values in parentheses on the line below, not explained, read-out: CDK4 CyclinD1 IC50
# Experimental: as §1, §2
# [1] = Table 3a, read-out: CDK1/B IC50
# [2] = Table 3b, read-out: CDK1/B IC50
# Chain of CDK9-CYCLINT1 (P50750 whole entry): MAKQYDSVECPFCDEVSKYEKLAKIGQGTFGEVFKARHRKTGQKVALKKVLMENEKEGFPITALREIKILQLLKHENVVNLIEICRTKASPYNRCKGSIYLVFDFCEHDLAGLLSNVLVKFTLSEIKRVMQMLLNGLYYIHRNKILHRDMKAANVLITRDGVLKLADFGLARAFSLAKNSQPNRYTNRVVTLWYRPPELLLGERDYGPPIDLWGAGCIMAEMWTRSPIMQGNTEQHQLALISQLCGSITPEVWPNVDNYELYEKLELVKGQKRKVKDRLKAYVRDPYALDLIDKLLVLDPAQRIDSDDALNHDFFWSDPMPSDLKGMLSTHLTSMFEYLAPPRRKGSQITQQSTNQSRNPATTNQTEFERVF
# Chain of CDK9-CYCLINT1 (O60563 whole entry partner): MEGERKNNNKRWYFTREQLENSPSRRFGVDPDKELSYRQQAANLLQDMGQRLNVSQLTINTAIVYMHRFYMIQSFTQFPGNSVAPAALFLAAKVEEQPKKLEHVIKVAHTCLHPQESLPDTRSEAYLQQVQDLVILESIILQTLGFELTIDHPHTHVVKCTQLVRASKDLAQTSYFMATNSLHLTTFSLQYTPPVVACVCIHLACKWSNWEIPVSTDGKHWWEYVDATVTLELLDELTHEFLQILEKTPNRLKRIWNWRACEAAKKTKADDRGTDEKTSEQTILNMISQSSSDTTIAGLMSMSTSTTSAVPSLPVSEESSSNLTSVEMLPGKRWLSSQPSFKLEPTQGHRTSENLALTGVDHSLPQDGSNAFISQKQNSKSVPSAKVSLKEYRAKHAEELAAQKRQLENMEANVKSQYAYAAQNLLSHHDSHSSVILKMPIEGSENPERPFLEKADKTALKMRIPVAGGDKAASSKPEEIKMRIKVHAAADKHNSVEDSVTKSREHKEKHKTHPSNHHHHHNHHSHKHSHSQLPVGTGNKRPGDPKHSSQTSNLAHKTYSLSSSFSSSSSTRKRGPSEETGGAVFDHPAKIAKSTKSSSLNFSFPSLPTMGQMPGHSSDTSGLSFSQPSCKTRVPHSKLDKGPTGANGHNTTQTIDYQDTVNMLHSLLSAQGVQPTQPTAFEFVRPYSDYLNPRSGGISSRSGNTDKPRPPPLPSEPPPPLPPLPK
# Chain of CDK1/B (P06493 whole entry): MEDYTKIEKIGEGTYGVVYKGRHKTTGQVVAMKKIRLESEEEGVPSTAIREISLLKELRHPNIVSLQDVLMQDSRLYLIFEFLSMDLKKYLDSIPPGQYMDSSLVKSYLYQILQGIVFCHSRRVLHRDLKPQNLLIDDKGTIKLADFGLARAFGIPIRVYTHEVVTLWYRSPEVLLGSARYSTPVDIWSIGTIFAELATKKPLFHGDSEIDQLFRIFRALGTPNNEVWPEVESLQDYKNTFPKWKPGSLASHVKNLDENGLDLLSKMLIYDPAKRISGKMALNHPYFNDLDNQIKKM
# Chain of CDK1/B (P14635 whole entry partner): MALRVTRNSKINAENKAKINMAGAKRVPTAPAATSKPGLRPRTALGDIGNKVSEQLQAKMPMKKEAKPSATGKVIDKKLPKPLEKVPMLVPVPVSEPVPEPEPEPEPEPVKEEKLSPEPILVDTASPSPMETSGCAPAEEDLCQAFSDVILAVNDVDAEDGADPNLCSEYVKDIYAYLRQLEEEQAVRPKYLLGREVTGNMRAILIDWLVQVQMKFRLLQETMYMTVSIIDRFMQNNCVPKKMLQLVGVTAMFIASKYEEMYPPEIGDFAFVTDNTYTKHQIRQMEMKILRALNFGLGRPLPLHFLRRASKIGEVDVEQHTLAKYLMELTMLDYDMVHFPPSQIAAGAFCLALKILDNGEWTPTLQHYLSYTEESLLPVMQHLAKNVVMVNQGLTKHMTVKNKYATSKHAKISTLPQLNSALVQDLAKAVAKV
# Chain of CDK4-CYCLIND1 (P11802 whole entry): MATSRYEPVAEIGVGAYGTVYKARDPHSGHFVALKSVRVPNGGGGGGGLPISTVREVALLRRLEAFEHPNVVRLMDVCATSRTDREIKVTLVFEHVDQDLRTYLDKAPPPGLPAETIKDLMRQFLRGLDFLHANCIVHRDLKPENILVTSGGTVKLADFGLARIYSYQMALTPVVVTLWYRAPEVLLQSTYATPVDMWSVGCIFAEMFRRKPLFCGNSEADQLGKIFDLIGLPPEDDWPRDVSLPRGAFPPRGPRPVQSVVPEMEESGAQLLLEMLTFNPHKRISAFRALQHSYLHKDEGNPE
# Chain of CDK4-CYCLIND1 (P24385 whole entry partner): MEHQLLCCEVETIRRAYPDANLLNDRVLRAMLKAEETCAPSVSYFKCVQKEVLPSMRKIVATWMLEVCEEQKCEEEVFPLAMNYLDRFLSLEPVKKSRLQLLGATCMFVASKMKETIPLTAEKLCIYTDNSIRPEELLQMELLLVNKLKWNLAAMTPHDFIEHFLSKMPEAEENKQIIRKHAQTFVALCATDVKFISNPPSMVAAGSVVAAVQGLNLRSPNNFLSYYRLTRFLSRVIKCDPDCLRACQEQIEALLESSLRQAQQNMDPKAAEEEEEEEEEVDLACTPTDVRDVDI
# Chain of CDK7 CyclinH (P50613 whole entry): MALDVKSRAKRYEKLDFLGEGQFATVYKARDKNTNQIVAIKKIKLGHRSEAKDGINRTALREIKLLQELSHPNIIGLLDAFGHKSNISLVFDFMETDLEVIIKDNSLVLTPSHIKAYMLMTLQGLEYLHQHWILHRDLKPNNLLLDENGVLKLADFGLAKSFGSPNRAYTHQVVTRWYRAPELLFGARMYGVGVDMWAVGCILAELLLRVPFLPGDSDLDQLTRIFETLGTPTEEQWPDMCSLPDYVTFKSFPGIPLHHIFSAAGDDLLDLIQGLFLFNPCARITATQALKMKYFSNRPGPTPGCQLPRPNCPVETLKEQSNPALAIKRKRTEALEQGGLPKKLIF
# Chain of CDK7 CyclinH (P51946 whole entry partner): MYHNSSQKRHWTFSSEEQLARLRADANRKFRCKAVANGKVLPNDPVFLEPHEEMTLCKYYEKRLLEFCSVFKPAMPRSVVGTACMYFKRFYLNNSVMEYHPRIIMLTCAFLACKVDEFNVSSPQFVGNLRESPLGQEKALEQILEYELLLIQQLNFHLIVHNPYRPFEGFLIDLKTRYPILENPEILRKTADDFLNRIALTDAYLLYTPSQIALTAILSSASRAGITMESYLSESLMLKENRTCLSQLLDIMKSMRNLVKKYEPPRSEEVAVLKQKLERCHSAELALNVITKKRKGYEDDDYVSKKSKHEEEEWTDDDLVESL
# Chain of CDK7 CyclinH (P51948 whole entry partner): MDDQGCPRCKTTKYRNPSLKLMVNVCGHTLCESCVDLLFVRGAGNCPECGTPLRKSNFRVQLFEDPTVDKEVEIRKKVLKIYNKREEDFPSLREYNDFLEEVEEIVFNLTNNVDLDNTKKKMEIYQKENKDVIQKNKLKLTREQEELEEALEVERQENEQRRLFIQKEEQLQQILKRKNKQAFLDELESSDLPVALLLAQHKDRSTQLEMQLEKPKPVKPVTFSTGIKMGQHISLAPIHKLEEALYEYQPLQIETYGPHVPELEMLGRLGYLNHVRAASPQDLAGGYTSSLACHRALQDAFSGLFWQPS
IC50 (CDK7 CyclinH; Table 3a) [µM],IC50 (CDK7 CyclinH; Table 3b) [µM],IC50 (CDK1/B; [1]) [µM],IC50 (CDK9-CYCLINT1; Table 3a) [µM],IC50 (CDK9-CYCLINT1; Table 3b) [µM],IC50 (CDK2-CYCLINA; Table 3a) [µM],IC50 (CDK2-CYCLINA; Table 3b) [µM],IC50 (CDK4-CYCLIND1; Table 3a) [µM],IC50 (CDK4-CYCLIND1; Table 3b) [µM],IC50 (CDK1/B; [2]) [µM],IC50 (CDK1/B) [µM],SMILES
0.64,0.64,0.527,< 0.0032,< 0.0032,0.211,0.211,< 0.0032,< 0.0032,,,"CC(=O)c1c(C)c2cnc(Nc3ccc(OCCN(C)C)cc3)nc2n(C2CCCC2)c1=O [Compound B59, 6-acetyl-8-cyclopentyl-2-((4-(2-(dimethylamino)ethoxy)phenyl)amino)-5-methylpyrido[2,3-d]pyrimidin-7(8H)-one]"
> 10,> 10,> 10,0.422,0.422,> 10,> 10,0.0152,0.0152,> 10,,"CC(=O)c1c(C)c2cnc(Nc3ccc(OCCN4CCCC4)cn3)nc2n(C2CCCC2)c1=O [Compound B66, 6-acetyl-8-cyclopentyl-5-methyl-2-((5-(2-(pyrrolidin-1-yl)ethoxy)pyridin-2-yl)amino)pyrido[2,3-d]pyrimidin-7(8H)-one]"
> 10,> 10,> 10,1.23,1.23,> 10,> 10,0.0483,0.0483,> 10,,"CC(=O)c1c(C)c2cnc(Nc3ccc(N4CCN(C)CC4)cn3)nc2n(C23CC(C2)C3)c1=O [Compound B93, 6-acetyl-8-(bicyclo[1.1.1]pentan-1-yl)-5-methyl-2-((5-(4-methylpiperazin-1-yl)pyridin-2-yl)amino)pyrido[2,3-d]pyrimidin-7(8H)-one]"
2.84,2.84,4.04,0.0976,0.0976,2.79,2.79,0.00754,0.00754,,,"CC(=O)c1c(C)c2cnc(Nc3ccc(N4CCN(C)CC4)cc3)nc2n(C23CC(C2)C3)c1=O [Compound B96, 6-acetyl-8-(bicyclo[1.1.1]pentan-1-yl)-5-methyl-2-((4-(4-methylpiperazin-1-yl)phenyl)amino)pyrido[2,3-d]pyrimidin-7(8H)-one]"
0.327,0.327,0.509,0.0275,0.0275,0.308,0.308,< 0.0032,< 0.0032,,,"N#Cc1cc2cnc(Nc3ccc(N4CCN(CCO)CC4)c(F)c3)nc2n(C2CCCC2)c1=O [Compound B106, 8-cyclopentyl-2-((3-fluoro-4-(4-(2-hydroxyethyl)piperazin-1-yl)phenyl)amino)-7-oxo-7,8-dihydropyrido[2,3-d]pyrimidine-6-carbonitrile]"
> 10,> 10,> 10,> 10,> 10,> 10,> 10,> 10,> 10,> 10,,"CS(=O)(=O)N1CCC(Nc2ncc3cc(C#N)c(=O)n(C45CC(C4)C5)c3n2)CC1 [Compound B113, 8-(bicyclo[1.1.1]pentan-1-yl)-2-((1-(methylsulfonyl)piperidin-4-yl)amino)-7-oxo-7,8-dihydropyrido[2,3-d]pyrimidine-6-carbonitrile]"
> 10,> 10,> 10,0.733,0.733,> 10,> 10,0.505,0.505,> 10,,"CN(C)CCOc1ccc(Nc2ncc3cc(C#N)c(=O)n(C45CC(C4)C5)c3n2)nc1 [Compound B149, 8-(bicyclo[1.1.1]pentan-1-yl)-2-((5-(2-(dimethylamino)ethoxy)pyridin-2-yl)amino)-7-oxo-7,8-dihydropyrido[2,3-d]pyrimidine-6-carbonitrile]"
> 10,> 10,> 10,5.14,5.14,> 10,> 10,0.00893,0.00893,> 10,,"Cc1c(C(=O)N(C)C)c(=O)n(C2CCCC2)c2nc(Nc3ccc(N4CC(C)NC(C)C4)cc3)ncc12 (stereo not drawn) [Compound B151, 8-cyclopentyl-2-((4-(3,5-dimethylpiperazin-1-yl)phenyl)amino)-N,N,5-trimethyl-7-oxo-7,8-dihydropyrido[2,3-d]pyrimidine-6-carboxamide]"
0.745,0.745,,0.105,0.105,0.0153,0.0153,0.00329,0.00329,,0.0479,"CS(=O)(=O)N1CCC(Nc2ncc3cc(C#N)c(=O)n(C4CCCC4)c3n2)CC1 [Compound B152, 8-cyclopentyl-2-((1-(methylsulfonyl)piperidin-4-yl)amino)-7-oxo-7,8-dihydropyrido[2,3-d]pyrimidine-6-carbonitrile]"
> 10,> 10,0.763,4.58,4.58,0.285,0.285,0.0213,0.0213,,,"CN(C)C(=O)c1cc2cnc(NC3CCN(S(C)(=O)=O)CC3)nc2n(C2CCCC2)c1=O [Compound B153, 8-cyclopentyl-N,N-dimethyl-2-((1-(methylsulfonyl)piperidin-4-yl)amino)-7-oxo-7,8-dihydropyrido[2,3-d]pyrimidine-6-carboxamide]"
0.468,0.468,0.172,,,0.0816,0.0816,< 0.0032,< 0.0032,,,"CC(=O)c1c(C)c2cnc(Nc3ccc(N(C)CCN(C)C)cc3)nc2n(C2CCCC2)c1=O [Compound B155, 6-acetyl-8-cyclopentyl-2-((4-((2-(dimethylamino)ethyl)(methyl)amino)phenyl)amino)-5-methylpyrido[2,3-d]pyrimidin-7(8H)-one]"
> 10,> 10,2.82,> 10,> 10,1.02,1.02,0.101,0.101,,,"Cc1c(C(=O)N(C)C)c(=O)n(C23CC(C2)C3)c2nc(NC3CCN(S(C)(=O)=O)CC3)ncc12 [Compound B156, 8-(bicyclo[1.1.1]pentan-1-yl)-N,N,5-trimethyl-2-((1-(methylsulfonyl)piperidin-4-yl)amino)-7-oxo-7,8-dihydropyrido[2,3-d]pyrimidine-6-carboxamide]"
> 10,> 10,> 10,2.45,2.45,5.25,5.25,1.25,1.25,> 10,,"Cc1c(C(=O)N(C)C)c(=O)n(C23CC(C2)C3)c2nc(NC3CC4CCC3C4)ncc12 (stereo not drawn) [Compound B157, 8-(bicyclo[1.1.1]pentan-1-yl)-2-(bicyclo[2.2.1]heptan-2-ylamino)-N,N,5-trimethyl-7-oxo-7,8-dihydropyrido[2,3-d]pyrimidine-6-carboxamide]"
> 10,,> 10,2.75,2.75,> 10,> 10,1.59,1.59,,,"Cc1c(C(=O)N(C)C)c(=O)n(C23CC(C2)C3)c2nc(NC3CC4CCC3C4)ncc12 (stereo not drawn) [Compound B158, 8-(bicyclo[1.1.1]pentan-1-yl)-2-(bicyclo[2.2.1]heptan-2-ylamino)-N,N,5-trimethyl-7-oxo-7,8-dihydropyrido[2,3-d]pyrimidine-6-carboxamide]"
2.42,2.42,1.3,0.0906,0.0906,0.5,0.5,0.00402,0.00402,,,"CN1CC2(C1)CN(c1ccc(Nc3ncc4cc(C#N)c(=O)n(C5CCCC5)c4n3)cc1)C2 [Compound B159, 8-cyclopentyl-2-((4-(6-methyl-2,6-diazaspiro[3.3]heptan-2-yl)phenyl)amino)-7-oxo-7,8-dihydropyrido[2,3-d]pyrimidine-6-carbonitrile]"
